Assay results published in EP3338775B1, “USE OF BUTYLIDENEPHTHALIDE” (Everfront Biotech Inc., priority 2015, dated 2017).

Assays:
[1] = system: HNC-TIC-like oral stem cells (ALDH1^+CD44^+-1 cell line, ALDH1^+CD44^+-2 cell line); test: MTT viability assay on HNC-TIC-like oral stem cells; format: cell-based; details: BP 0, 25, 50 and 100 µg/ml for 24 hours; both cell lines; Figure 2
Experimental: NHOKs (normal human oral keratinocytes) and HNC-TIC (head and neck cancer-derived tumor initiating cell)-like oral stem cells (i.e., ALDH1^+CD44^+-1 cell line or ALDH1^+CD44^+-2 cell line) were treated with different concentrations (0, 25, 50 and 100 µg/ml) of BP for 24 hours, and then, an MTT assay was utilized to analyzed the viabilities of NHOKs and HNC-TIC-like oral stem cells (i.e., ALDH1^+CD44^+-1 cell line and ALDH1^+CD44^+-2 cell line).

[2] = system: Sox-2, CD133 and CD44 proteins; test: Western blotting of stemness-maintenance markers in MiaPaCa-2 cells; format: cell-based; details: BP 0, 12.5, 25 and 50 µg/ml for 24 hours; Figure 6
Experimental: It has been known that CD44, CD133, Sox-2 (sex-determining region Y protein (SRY)-related high-mobility group box 2) and Oct4 (octamerbinding transcription factor 4) proteins all are stemness-maintenance markers of cancer stem cells and participate in the regulation of the self-renewal and differentiation of cancer stem cells. Brain CSCs ^CD133+ was treated with different concentrations (0, 12.5, 25, 50, 62.5 and 75 µg/ml) of BP for 24 hours, and then, proteins were extracted from the cells to conduct Western blotting to determine the expressions of CD133, Sox-2 and Oct4 proteins in the BP-treated brain CSCs ^CD133+. In addition, MiaPaCa-2 cell line (i.e., a cell line of pancreatic cancer cells) was treated with different concentrations (0, 12.5, 25, and 50 µg/ml) of BP for 24 hours, and then, proteins were extracted from the cells to conduct Western blotting to determine the expressions of Sox-2, CD133 and CD44 proteins in the BP-treated MiaPaCa-2 cells. […]

[3] = system: pcDNA3.0-neo brain CSCs ^CD133+; test: Wound healing assay with pcDNA3.0-neo brain CSCs CD133+; format: cell-based; details: without Axl overexpression; BP 0, 25, 50, 62.5, 75 and 100 µg/ml for 24 hours; Figure 14C
Experimental: (§1) In this research, to further investigate whether the capability of BP in inhibiting the metastasis of cancer stem cells is related to Axl, brain CSCs ^CD133+ was transfected with pcDNA3.0-Axl plasmid and pcDNA3.0-neo plasmid respectively by using Lipofectmine 2000 transfection reagent. Then, the transfected brain CSCs ^CD133+ and un-transfected brain CSCs ^CD133+ were selected by 200 to 600 µg/ml G418 at the same time to obtain brain CSCs ^CD133+ having pcDNA3.0-Axl plasmid (hereinafter referred to as "pcDNA 3.0-Axl brain CSCs ^CD133+") or brain CSCs ^CD133+ having pcDNA3.0-neo plasmid (hereinafter referred to as "pcDNA3.0-neo brain CSCs ^CD133+"). Both pcDNA 3.0-Axl brain CSCs ^CD133+ and pcDNA3.0-neo brain CSCs ^CD133+ were observed and photographed with the use of a microscope. Then, proteins were extracted from both cells to conduct Western blotting to determine the expressions of Axl protein and β-actin in the BP-treated brain CSCs ^CD133+. Yet another, pcDNA 3.0-Axl brain CSCs ^CD133+ and pcDNA3.0-neo brain CSCs ^CD133+ were treated with different concentrations (0, 25, 50, 62.5, 75 and 100 µg/ml) of BP for 24 hours. At the same time, the phenomenon of pcDNA 3.0-Axl brain CSCs ^CD133+ and pcDNA3.0-neo brain CSCs ^CD133+ migrate to the wound was observed and photographed at 0 and 24 hours during the BP treatment.

[4] = system: pcDNA 3.0-Axl brain CSCs ^CD133+; test: Wound healing assay with pcDNA 3.0-Axl brain CSCs CD133+ (Axl overexpression); format: cell-based; details: BP 0, 25, 50, 62.5, 75 and 100 µg/ml for 24 hours, compared to pcDNA3.0-neo cells, Figure 14C
Experimental: as §1

[5] = system: HNC-TIC-like oral stem cells stably transfected with GFP-tagged constructs; test: Tumor initiating activity animal experiment, subcutaneous GFP-tagged HNC-TIC-like oral stem cells in nude mice; format: in vivo, BALB/c nu/nu mice
Experimental: In this research, the effect of BP on inhibiting the tumor initiating activity of cancer stem cells was further investigated by animal experiments. First, 5-6 weeks old BALB/c nu/nu mice (weight 18-22 g) were bred under the same condition for 4 weeks. Then, HNC-TIC-like oral stem cells stably transfected with GFP-tagged constructs were injected (1×10^4 cells/0.1 mL/mouse) subcutaneously into the axilla of mice. After tumors reached 100 mm^3, mice were grouped into one control group and two experimental groups (three groups in total, n=3 per group). Then, one experimental group was injected daily with 100 mg/kg of BP for 6 days and another experimental group was injected daily with 200 mg/kg of BP for 6 days. The control group was injected daily with a vehicle (without BP) for 6 days. Ten days after the injection of BP or vehicle, the length and width were measured every 2 days (22 days in total), and then, the average tumor volume was calculated according to the following Formula 1. At the same time, the GFP signal (i.e., green fluorescence) of each group was detected and photographed by the IVIS Imaging system. The GFP intensity of each group was analyzed by Image-Pro Plus software. [length×width^2]/2((unit:mm)^3) [formula]

CCCC=C1OC(=O)c2ccccc21 [BP, butylidenephthalide]
viability of HNC-TIC-like oral stem cells [1]: decreased along with the increment in the concentration of BP
expressions of Sox-2, CD133 and CD44 proteins in MiaPaCa-2 cells [2]: significantly decreased
number of pcDNA3.0-neo brain CSCs ^CD133+ migrated to the wound [3]: significantly decreased
suppression of the number of pcDNA 3.0-Axl brain CSCs ^CD133+ migrated to the wound [4]: not quite significant
GFP intensity ([5]; 100 mg/kg and 200 mg/kg groups, injected daily for 6 days, compared to control group, Figures 16C, 16D): significantly decreased
tumor volume ([5]; 100 mg/kg and 200 mg/kg groups, injected daily for 6 days, over a period of time after BP injection, Figure 16B): decreased
body weight of mice ([5]; 100 mg/kg or 200 mg/kg of BP injected daily for 6 days, Figure 16A): didn't change significantly
